Data set [1] can be described thus: Stability in DMSO monitored by UV-Vis spectroscopy. It is filed as physicochemical. The settings on record: ambient temperature, monitored ~1 to 2 h. How it is done:
The UV-Vis spectra of all complexes were recorded in DMSO at ambient temperature, immediately after dissolution, as this is the medium used for the biological assays. The UV-Vis spectrum of 1 will be included in a publication that follows. The relevant spectra of complexes 2, 3, 5 and 6 are shown below in Figure 6 and Figure 7, respectively, while that of complex 7 (concentrated solution) is included in Figure S9.
The UV-Vis absorption spectra of the light-yellow solutions of complexes 2, 3, 5 and 6 were monitored over a period of ~1 to 2 h (not shown) to ensure stability for the relevant biological assays. […] The electronic spectra of all complexes display four rather identical absorption bands in the range of 259–334 nm that can be attributed to π → π* and n → π* or charge-transfer transitions. These bands display medium to weak molar extinction coefficients and are in the expected region for similar complexes. For the cobalt(II) complex 2, the very low intensity and rather broad absorption, centered at ~680 nm can be attributed to d-d transitions. Also for the copper(II) complex 3, the broad absorption band in the range of 660–870 nm, is attributed to d-d transition.

Data set [2] deals with human lymphocytes cultures. Nature of the data set: Toxicity in healthy cells (human lymphocytes cultures). It is filed as cell-based.
For data set [3], the target named is T1, Lipoprotein-associated phospholipase A2 (Lp-PLA2) (Oryctolagus cuniculus, UniProt G1SE06).
T1 construct: from tissue; host or cells: rabbit plasma
T1 sequence (G1SE06 22-423): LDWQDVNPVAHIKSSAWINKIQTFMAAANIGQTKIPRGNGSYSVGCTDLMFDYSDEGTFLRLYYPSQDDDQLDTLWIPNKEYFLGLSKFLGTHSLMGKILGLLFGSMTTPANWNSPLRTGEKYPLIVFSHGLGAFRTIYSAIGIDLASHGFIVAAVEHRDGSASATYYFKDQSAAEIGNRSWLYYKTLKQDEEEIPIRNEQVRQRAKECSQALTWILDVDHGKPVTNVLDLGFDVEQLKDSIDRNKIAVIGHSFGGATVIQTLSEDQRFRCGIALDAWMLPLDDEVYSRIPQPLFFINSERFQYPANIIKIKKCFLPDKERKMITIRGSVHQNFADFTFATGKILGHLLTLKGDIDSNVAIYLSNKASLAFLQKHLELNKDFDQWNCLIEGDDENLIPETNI
The experiment in a line: Plasma PAF-AH (LpPLA2) activity assay. The settings on record: in increased concentrations, Figure 10. Format: biochemical, rabbit. How it is done:
(§1) The experiment on the inhibitory effect of each compound of interest against the washed rabbit platelets (WRPs) aggregation was carried out as per the already described method. The platelets were from male New Zealand white rabbits (about 20), individually housed in stainless steel cages in an air-conditioned room (19 ± 1 °C, 55 ± 5% humidity on a 12/12 h artificial light/dark cycle). Blood samples were drawn from the main ear artery. Microliters of PAF in a final concentration of about 10^–10 M were added to the cuvette of the aggregometer, and the height of the platelet aggregation was monitored. […] Dithiothreitol-insensitive PAF choline phosphotransferase, lyso-PAF:acetyl-CoA acetyltransferase and PAF-acetylhydrolase activity assays were performed on the homogenates of rabbit leukocytes while the activity of lipoprotein-associated phospholipase A2 was assessed on plasma as previously described. […] All results were expressed as mean ± standard deviation (SD). […] Data were analyzed using a statistical software package (SPSS for Windows, 16.0, 2007, SPSS Inc., Chicago, IL, USA) and Microsoft Excel 2007.
Plasma PAF-AH was determined in rabbit plasma by the trichloroacetic acid precipitation method using [3H] […] The [3H]-acetate released into the aqueous phase was measured on a liquid scintillation counter. […]

Data set [4] has as its system lyso-PAF:acetyl-CoA acetyltransferase (lyso-PAF-AT). The experiment in a line: Lyso PAF-AT activity assay on leukocyte homogenate. The settings on record: rabbit leukocyte homogenate; Figure 9. It is filed as biochemical. How it is done: as §1, with “2007. […]” for “2007.”
The extraction, purification, and determination of the produced in each assay PAF was carried out as previously described. […] PAF bands were scrapped off, and extracted and the amount of PAF was determined by the washed rabbit platelet aggregation assay. […]

`CS(C)=O.[Cl][Cu][Cl].c1ccc(-c2cnc3ccccc3n2)nc1` [Complex 3, [Cu(pqx)Cl2(DMSO)]]: the “stability of UV-Vis absorption spectra in DMSO” value (“stability” below) in data set [1] is recorded as “not modified over time”.

As for `[Cl][Zn][Cl].c1ccc(-c2cnc3ccccc3n2)nc1` [Complex 4, [Zn(pqx)Cl2]], the “toxicity in healthy cells” value in data set [2] is “almost inactive (non-toxic)”.

As to [Co(pqx)Cl2(DMF)] [Complex 2], the “stability” value in data set [1] is listed as “not modified over time”.

For the molecule [Fe(pqx)Cl2]2 [Complex 6], the “stability” value in data set [1] is on record as “not modified over time”.

Turning to [Mn(pqx)(H2O)2Cl2]2 [Complex 5], the “stability” value in data set [1] was “not modified over time”.

With [Ni(pqx)Cl2]2 [Complex 7], the “inhibition of the specific activity of Lp-PLA2” value in data set [3] is given as “disables the enzymatic activity”. For the same molecule, the “inhibition of the specific activity of lyso-PAF-AT” value in data set [4] was “inhibit in a dose-dependent way”.

As for mer-[Cr(pqx)Cl3(H2O)] [Complex 1], the “toxicity in healthy cells” value in data set [2] is “almost inactive (non-toxic)”. The “inhibition of the specific activity of lyso-PAF-AT” value in data set [4] is recorded as “inhibit in a dose-dependent way”.

(Values after PMC10574351, “First-Row Transition Metal Complexes Incorporating the 2-(2′-pyridyl)quinoxaline Ligand (pqx), as Potent Inflammatory Mediators: Cytotoxic Properties and Biological Activities against the Platelet-Activating Factor (PAF) and Thrombin” (Molecules, 2023).)
